Test results taken from patent EP0920441B1, “7ALPHA-(EPSILON-AMINOALKYL)-ESTRATRIENES, PROCESS FOR PREPARING THE SAME, PHARMACEUTICAL PREPARATIONS CONTAINING SAID 7ALPHA-(EPSILON-AMINOALKYL)-ESTRATRIENES AND THEIR USE FOR PREPARING MEDICAMENT” (SCHERING AKTIENGESELLSCHAFT, priority 1996, dated 1998).

Experiments:
Uterus = Uterus growth test in the infantile rat, p.o. (antiestrogenic / antiuterotrophic activity); type: in vivo, Ratte; conditions: 0,1 mg/kg p.o. once daily for 3 days with 0,5 µg Estradiolbenzoat s.c., inhibition of uterus weight versus EB control
Description: 1. Uteruswachstumstest bei der infantilen Ratte (antiestrogene Wirkung)
Bei Nagern reagiert der Uterus auf die Applikation von estrogenen mit einer Gewichtszunahme (sowohl Proliferation als auch Wassereinlagerung). Dieses Wachstum ist durch gleichzeitige Gäbe antiestrogen-wirkender Verbindungen dosisabhängig zu hemmen. * = Dimethylbenzanthrazen
Infantile weibliche Ratten im Gewicht von 35-45 g bei Versuchsbeginn, pro Dosis 5-6 Tiere.
Für die p.o. Applikation werden die Substanzen in 1 Teil Ethanol (E) gelöst und mit 9 Teilen Erdnußöl (EÖ) aufgefüllt.
Die gerade von den Müttern abgesetzten jungen Ratten werden zur Eingewöhnung einen Tag vor Behandlungsbeginn geliefert und sofort mit Futter - auch in dem Tierkäfig - versorgt. Die Behandlung erfolgt dann täglich einmal über 3 Tage in Kombination mit 0,5 µg Estradiolbenzoat (EB). EB wird immer subcutan (s.c.) appliziert, während die Testsubstanz p.o. (peroral) verabreicht wird. 24 Stunden nach der letzten Applikation werden die Tiere gewogen, getötet und die Uteri entnommen. Von den präparierten Uteri werden die Feuchtgewichte (ohne Inhalt) ermittelt.
• negative Kontrolle: Vehikel (E/EÖ), 0,2 ml/Tier/Tag • positive Kontrolle: 0,5 µg EB/0,1 ml/Tier/Tag
Von den relativen Organgewichten (mg/100 g Körpergewicht) werden für jede Gruppe die Mittelwerte mit Standardabweichung (X+SD), sowie die Signifikanz der Unterschiede zur Kontrollgruppe (EB) im Dunnett-Test (p<0.05) ermittelt. Die Berechnung der Hemmung (in %) gegenüber der EB-Kontrolle erfolgt mit einem Programm. Die relativen Wirksamkeiten der Prüfsubstanzen werden durch eine Kovarianz- und Regressionsanalyse ermittelt.

humanem Estrogenrezeptor = biological target: T1, humanem Estrogenrezeptor (Homo sapiens, UniProt P03372); test: Transactivation assay for antiestrogenic activity in HeLa cells (HEGO + Vit-TK-CAT reporter); type: cell-based; conditions: Hela cells transiently transfected with HEGO and Vit-TK-CAT; in presence of 0,1 nM Estradiol; read-out: IC50 [nM] Hela-Zellen
T1 construct: expressed in transfected cells; host or cells: HeLa cells, transiently transfected with HEGO
T1 sequence (P03372 1-595): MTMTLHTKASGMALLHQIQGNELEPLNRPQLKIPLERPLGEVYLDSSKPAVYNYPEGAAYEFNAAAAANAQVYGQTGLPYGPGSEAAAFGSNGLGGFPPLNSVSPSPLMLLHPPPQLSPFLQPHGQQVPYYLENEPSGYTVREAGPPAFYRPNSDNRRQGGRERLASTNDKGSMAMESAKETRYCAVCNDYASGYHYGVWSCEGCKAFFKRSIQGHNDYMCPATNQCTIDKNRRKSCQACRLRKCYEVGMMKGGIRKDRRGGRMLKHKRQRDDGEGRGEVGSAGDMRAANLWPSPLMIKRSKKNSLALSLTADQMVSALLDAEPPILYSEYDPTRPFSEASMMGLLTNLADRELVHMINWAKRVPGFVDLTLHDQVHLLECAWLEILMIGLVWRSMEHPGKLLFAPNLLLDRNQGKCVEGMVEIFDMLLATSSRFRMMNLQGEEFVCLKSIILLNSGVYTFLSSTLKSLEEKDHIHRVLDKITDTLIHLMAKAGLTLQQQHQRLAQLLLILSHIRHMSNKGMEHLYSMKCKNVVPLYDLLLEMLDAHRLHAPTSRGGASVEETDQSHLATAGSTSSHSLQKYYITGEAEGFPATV
Description: Die antiestrogene Wirkung der erfindungsgemäßen Verbindungen wurde in Transaktivierungsassays bestimmt [Demirpence E., Duchesne M.-J., Badia E., Gagne D. und Pons M.: MVLN Cells: A Bioluminescent MCF-7-Derived Cell Line to study the Modulation of Estrogenic Activity; J. Steroid. Molec.
Die Hela-Zellen sind transient mit humanem Estrogenrezeptor-Expressionsvektor (HEGO) und Vit-TK-CAT Reportergen und die MVLN-Zellen stabil mit dem Reportergen Vit-TK-LUC transfiziert. Es wurde die […] Wirkstärke in Gegenwart von 0,1 nM Estradiol bestimmt.

[1] = Antiestrogenic activity (test not specified)
[2] = tested on: DMBA-induzierten Mammatumors; test: DMBA tumour model in the rat (influence on tumour growth); type: in vivo, Ratte
Description: Beeinflussung des Tumorwachstums im DMBA*-Modell bei der Ratte (DMBA-Tumormodell)
Das Wachstum des DMBA-induzierten Mammatumors der Ratte ist weitgehend von Estrogenen und Prolaktin abhängig. Wirksame Antiestrogene, Antigestagene und Aromatasehemmer führen zur Hemmung des Tumorwachsturns. Substanzen, die antigonadotrope und androgene Eigenschaften besitzen, entfalten ebenfalls tumorhemmende Wirkung.
45 - 47 Tage alte weibliche Ratten (Sprague-Dawley, Züchter ZIH oder Möllegard), pro Gruppe 8 - 10 Tiere. *9,10-Dimethyl-1,2-benzanthracen
Die Tiere erhalten einmalig 10 mg DMBA oral. Anschließend werden die Tiere einmal wöchentlich palpatorisch auf Tumorentwicklung untersucht. 6 bis 10 Wochen nach der DMBA-Behandlung entwickeln sich etwa 1 bis 10 Tumoren pro Tier. Die Tumorgröße wird einmal wöchentlich mit Hilfe einer Schiebelehre bestimmt. Hat mindestens ein Tumor eine definierte Größe (150 mm^2 Tumorfläche) erreicht, erfolgt die Ovariektomie der Tiere bzw. beginnt die Behandlung der Tiere mit der Testsubstanz. Die Behandlung erfolgt zumeist täglich über ca. 28 Tage (Details Abwicklung siehe Versuchsplan). Die Tumorgröße wird weiterhin 1 x /Woche ermittelt.
Die Gesamttumorgröße pro Tier wird vor Beginn der Behandlung ermittelt (Vorwerte). Für jede Gruppe wird dann der Mittelwert der prozentualen Veränderungen der Tumorgröße, bezogen auf die initialen Werte, errechnet. […]

Compound	0,1 mg/kg p.o. % Hemmung (Uterus)	IC50 (humanem Estrogenrezeptor)	antiestrogene Wirksamkeit [1]	Hemmung des Tumorwachstums ([2]; oral dose 3 mg/kg/Tag (Figur 1))	Hemmung des Tumorwachstums ([2]; oral dose 10 mg/kg/Tag (Figur 1))
CN(CCCCC[C@@H]1Cc2cc(O)ccc2[C@H]2CC[C@@]3(C)[C@@H](C[C@@H](F)[C@]3(C)O)[C@H]12)CCCS(=O)(=O)CCCC(F)(F)C(F)(F)F [Beispiel 18, 16α-Fluor-17α-methyl-7α-{5-[N-methyl-N-3-(4,4,5,5,5-pentafluorpentansulfonyl)-propylamino]-pentyl}-estra-1,3,5(10)-trien-3,17β-diol]	16%	0.05 nM			
CN(CCCCC[C@@H]1Cc2cc(O)ccc2[C@@H]2[C@@H]1[C@@H]1CCC(=O)[C@@]1(C)C[C@@H]2F)CCCSCCCC(F)(F)C(F)(F)F [Beispiel 40, 11β-Fluor-7α-{5-[N-methyl-N-3-{4,4,5,5,5-pentafluorpentylthio)-propylamino]-pentyl}-3-hydroxy-estra-1,3,5(10)-trien-17-on]			stark antiestrogen wirksam		
C[C@]1(O)CC[C@H]2[C@@H]3[C@H](CCCCCN4CCC[C@H]4CSCCCC(F)(F)C(F)(F)F)Cc4cc(O)ccc4[C@H]3[C@@H](F)C[C@@]21C [Beispiel 31, 11β-Fluor-17α-methyl-7α-{5-[(2S)-2-(4,4,5,5,5-pentafluorpentylthiomethyl)-pyrrolidin-1-yl]-pentyl}-estra-1,3,5(10)-trien-3,17β-diol]	71%	0.1 nM			
CN(CCCCC[C@@H]1Cc2cc(O)ccc2[C@H]2CC[C@@]3(C)C(=CC[C@@H]3O)[C@H]12)CCCS(=O)(=O)CCCC(F)(F)C(F)(F)F [Beispiel 25, 7α-{5-[N-Methyl-N-3-(4,4,5,5,5-pentafluorpentansulfonyl)-propylamino]-pentyl}-estra-1,3,5(10),14-tetraen-3,17β-diol]		0.06 nM			
CN(CCCCC[C@@H]1Cc2cc(O)ccc2[C@H]2CC[C@@]3(C)[C@@H](C[C@@H](F)[C@]3(C)O)[C@H]12)CCCSCCCC(F)(F)C(F)(F)F [Beispiel 15, 16α-Fluor-17α-methyl-7α-{5-[N-methyl-N-3-(4,4,5,5,5-pentafluorpentylthio)-propylamino]-pentyl}-estra-1,3,5(10)-trien-3,17β-diol]	33%	0.06 nM			
C[C@]12C[C@H](F)[C@@H]3c4ccc(O)cc4C[C@@H](CCCCCN4CCC[C@H]4CSCCCC(F)(F)C(F)(F)F)[C@H]3[C@@H]1CC[C@@H]2O [Beispiel 29, 11β-Fluor-7α-{5-[2-(4,4,5,5,5-pentafluorpentylthiomethyl)-pyrrolidin-1-yl]-pentyl}-estra-1,3,5(10)-trien-3,17β-diol]	80%	0.13 nM		stärker als eine orale Dosis von 10 mg/kg/Tag 7α-[9-(4,4,5,5,5-Pentafluorpentansulfinyl)-nonyl]-estra-1,3,5(10)-trien-3,17β-diol	
CN(CCCCC[C@@H]1Cc2cc(O)ccc2[C@@H]2[C@@H]1[C@@H]1CC[C@H](O)[C@@]1(C)C[C@@H]2F)CCCSCCCC(F)(F)C(F)(F)F [Beispiel 12, 11β-Fluor-7α-{5-(N-methyl-N-3-(4,4,5,5,5-pentafluorpentylthio)-propytamino]-pentyl}-estra-1,3,5(10)-trien-3,17β-diol]	91%	0.06 nM			
C[C@]12CC[C@@H]3c4ccc(O)cc4C[C@@H](CCCCCCCCC[S+]([O-])CCCC(F)(F)C(F)(F)F)[C@H]3[C@@H]1CC[C@@H]2O (stereo partly drawn) [ZM 182 780, 7α-[9-(4,4,5,5,5-Pentafluorpentansulfinyl)-nonyl]-estra-1,3,5(10)-trien-3,17β-diol, reference compound]	8%				nur eine geringfügige Wirkung im Vergleich zur intakten Kontrolle
CN(CCCCC[C@@H]1Cc2cc(O)ccc2[C@@H]2[C@@H]1[C@@H]1CC[C@](C)(O)[C@@]1(C)C[C@@H]2F)CCCSCCCC(F)(F)C(F)(F)F [Beispiel 36, 11β-Fluor-17α-methyl-7α-{5-[N-methyl-N-3-(4,4,5,5,5-pentafluorpentylthio)-propylamino]-pentyl}-estra-1,3,5(10)-trien-3,17β-diol]	62%	0.05 nM			
